Experimental data from patent US10259810B2, “N-sulfonylated pyrazolo[3,4-b]pyridin-6-carboxamides and method of use” (AbbVie S.à.r.l., priority 2015, dated 2019).
Read-outs that look alike come from different tables or passages of the source.

Columns and labels:
Assay type in all cases: cell-based
ΔF508-CFTR [1] = molecular target: T1, ΔF508-CFTR (Homo sapiens, UniProt P13569, DEL508-508); assay: CFTR cell surface levels using HRP-tagged ΔF508-CFTR expressing CFBE cells, in the presence of a co-corrector; conditions: HRP-tagged ΔF508-CFTR CFBE cells, in the presence of 3 μM co-corrector; for EC50: read-out: EC50
T1 construct: host or cells: CFBE41o-, doxycycline-inducible
T1 sequence (P13569 with tags, fused parts or gaps DEL508-508): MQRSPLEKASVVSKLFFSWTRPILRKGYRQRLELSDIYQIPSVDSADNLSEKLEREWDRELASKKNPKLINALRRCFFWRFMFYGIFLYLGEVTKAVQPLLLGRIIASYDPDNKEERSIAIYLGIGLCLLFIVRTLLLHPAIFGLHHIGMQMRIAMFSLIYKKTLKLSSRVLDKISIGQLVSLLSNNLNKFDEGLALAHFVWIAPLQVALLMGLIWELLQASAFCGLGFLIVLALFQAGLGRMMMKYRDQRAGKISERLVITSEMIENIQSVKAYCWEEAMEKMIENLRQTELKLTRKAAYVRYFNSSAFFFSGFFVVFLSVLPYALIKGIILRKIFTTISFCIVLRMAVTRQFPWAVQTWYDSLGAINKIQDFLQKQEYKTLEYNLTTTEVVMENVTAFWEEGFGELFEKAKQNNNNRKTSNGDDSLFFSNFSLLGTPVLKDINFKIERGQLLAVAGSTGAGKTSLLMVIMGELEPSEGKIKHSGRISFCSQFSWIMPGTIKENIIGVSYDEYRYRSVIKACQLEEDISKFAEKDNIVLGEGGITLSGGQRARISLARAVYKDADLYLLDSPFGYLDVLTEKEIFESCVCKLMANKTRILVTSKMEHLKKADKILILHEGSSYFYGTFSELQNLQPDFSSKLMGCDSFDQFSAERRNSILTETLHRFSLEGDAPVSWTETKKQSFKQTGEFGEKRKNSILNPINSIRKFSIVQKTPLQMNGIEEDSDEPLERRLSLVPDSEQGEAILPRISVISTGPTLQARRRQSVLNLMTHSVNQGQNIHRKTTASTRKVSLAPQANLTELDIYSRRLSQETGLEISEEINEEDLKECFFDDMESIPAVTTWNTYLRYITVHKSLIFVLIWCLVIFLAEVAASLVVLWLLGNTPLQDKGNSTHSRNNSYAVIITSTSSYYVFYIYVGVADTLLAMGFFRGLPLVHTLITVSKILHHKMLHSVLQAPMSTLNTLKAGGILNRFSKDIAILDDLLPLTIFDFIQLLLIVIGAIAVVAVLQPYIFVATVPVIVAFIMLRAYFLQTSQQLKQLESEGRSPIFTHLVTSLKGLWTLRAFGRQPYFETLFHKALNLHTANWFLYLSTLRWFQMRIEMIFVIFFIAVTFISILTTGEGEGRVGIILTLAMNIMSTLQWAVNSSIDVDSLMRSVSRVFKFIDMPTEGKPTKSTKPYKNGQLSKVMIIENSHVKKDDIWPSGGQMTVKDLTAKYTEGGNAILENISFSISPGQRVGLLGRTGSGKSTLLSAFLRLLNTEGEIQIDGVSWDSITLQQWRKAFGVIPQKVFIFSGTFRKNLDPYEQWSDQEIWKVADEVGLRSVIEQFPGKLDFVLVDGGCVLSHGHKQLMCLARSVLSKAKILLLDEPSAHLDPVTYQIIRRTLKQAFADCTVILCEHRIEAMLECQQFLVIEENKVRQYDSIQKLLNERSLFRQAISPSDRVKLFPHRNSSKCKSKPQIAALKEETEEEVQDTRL
How it was run: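 Chemiluminescent read-out of surface HRP (15 min, dark) after PBS washes. Activity is normalized as 100×(sample−DMSO)/(3 μM co-corrector alone−DMSO).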

CFTR ΔF508 = molecular target: T2, CFTR ΔF508 (Homo sapiens, UniProt P13569, DEL508-508); assay: Chronic TECC assay, primary bronchial epithelial cells of CF patients homozygous for CFTR ΔF508 (corrector, co-corrector and potentiator); conditions: for % Activity at 1 μM (Ieq*) / % Activity at 1 μM (AUC**): test compound at 1 μM; for % Activity at 3 μM (AUC**): test compound at 3 μM
T2 construct: bronchial epithelial cells isolated from CF patients homozygous for the CFTR ΔF508 mutation; McGill University; Asterand; University of North Carolina hAEC-CF; host or cells: primary human bronchial epithelial cells from CF patients homozygous for ΔF508, differentiated at air-liquid interface
T2 sequence (P13569 with tags, fused parts or gaps DEL508-508): as above
Method: Primary Bronchial Epithelial Cells Protocol
The TECC (Tranepithelial Clamp Circuit, EP-design) assay measures the functionality of the cystic fibrosis Transmembrane Conductance regulator (CFTR) by measuring the short circuit current (Isc) generated over the basolateral and apical membrane of lung epithelial cells. In TECC the transepithelial potential PD and transepithelial resistance (Rt) are measured in an open circuit and transformed to Ieq using Ohm's law. 24 Wells can be measured simultaneously allowing a higher throughput compared to Ussing chambers.
For this purpose, bronchial epithelial cells isolated from CF patients homozygous for the CFTR ΔF508 mutation (hAEC-CF, Epithelix, Geneva, Switzerland; McGill University, Montreal, Qc; Asterand, Detroit, Mich.; University of North Carolina, Chapel Hill, N.C.) are plated on type IV collagen-coated Transwell® supports (Costar).
For electrophysiological recording of the “chronic” experiments, the human airway epithelia are mounted in the TECC heating plate for electrophysiological measurement and kept at 37° C. The epithelia are bathed in a NaCl-Ringer solution (120 mM NaCl, 25 mM NaHCO3, 1.2 mM CaCl2, 1.2 mM MgCl2, 0.8 mM KH2PO4, 0.8 mM K2HPO4, pH 7.4, 5 mM glucose) on both the basolateral and apical sides. Test compounds (corrector, co-corrector, 4-[(2R,4R)-4-({[1-(2,2-difluoro-1,3-benzodioxol-5-yl)cyclopropyl]carbonyl}amino)-7-(difluoromethoxy)-3,4-dihydro-2H-chromen-2-yl]benzoic acid, and potentiator, N-(3-carbamoyl-5,5,7,7-tetramethyl-4,7-dihydro-5H-thieno[2,3-c]pyran-2-yl)-1H-pyrazole-5-carboxamide), are re-added to the recording solution prior to measurement. […] Apical amiloride is used to inhibit the endogenous ENaC currents while forskolin is applied on both apical and basolateral side to stimulate CFTR. Measurements are done during a 20 minute timeframe with recordings every 2 minutes. The increase in Ieq is used as a measure for the increased CFTR activity, EC50 values can be generated by measuring impact of different concentrations of compound on Ieq on primary cells, for this purpose each transwell is treated with a different compound concentration. […] Raw data were normalized to percentage activity values using the equation: 100×(Sample−Negative control)/(Positive control−Negative Control).

ΔF508-CFTR [2] = molecular target: T1, ΔF508-CFTR; assay: CFTR cell surface levels using HRP-tagged ΔF508-CFTR expressing CFBE cells, intrinsic corrector capacity; design: % Activation: concentration or dose not given beside the values; conditions: HRP-tagged ΔF508-CFTR expressing CFBE41o- cells, compound alone (intrinsic corrector capacity), 20 hours at 33° C.; for EC50: read-out: EC50
How it was run: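 Read-out: chemiluminescent HRP activity of ECL4-HRP-tagged ΔF508-CFTR at the cell surface, 15 min substrate in dark. Normalized as 100×(sample−DMSO)/(positive control−DMSO).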

[3] = chronic TECC, Ieq = calculations based on the maximum current, read-out: EC50 (nM) (Ieq*)
[4] = chronic TECC, Ieq = calculations based on the maximum current
[5] = chronic TECC, AUC = full area under the curve upon forskolin stimulation, read-out: EC50 (nM) (AUC**)
[6] = chronic TECC, AUC = full area under the curve upon forskolin stimulation

Compound: CCS(=O)(=O)NC(=O)c1cc(-c2cnc(N(C)C)nc2)c2c(C(C)C)nn(-c3cccc(N4CCOCC4)c3)c2n1 [Compound 30, 4-[2-(dimethylamino)pyrimidin-5-yl]-N-(ethanesulfonyl)-1-[3-(morpholin-4-yl)phenyl]-3-(propan-2-yl)-1H-pyrazolo[3,4-b]pyridine-6-carboxamide]
- % Activation (ΔF508-CFTR [1]): 580.97%
- EC50 (ΔF508-CFTR [1]): 215 nM
- EC50 (CFTR ΔF508; [3]): < 30 nM
- % Activity at 1 μM (Ieq*) (CFTR ΔF508; [4]): 450%
- % Activation (ΔF508-CFTR [2]): 369.93%
- EC50 (ΔF508-CFTR [2]): 436 nM

Compound: CC(C)c1nn(-c2ccccc2)c2nc(C(=O)NS(C)(=O)=O)cc(-c3ccc(N4CCOCC4)nc3)c12 [Compound 34, N-(methanesulfonyl)-4-[6-(morpholin-4-yl)pyridin-3-yl]-1-phenyl-3-(propan-2-yl)-1H-pyrazolo[3,4-b]pyridine-6-carboxamide]
- % Activation (ΔF508-CFTR [1]): 462.55%
- EC50 (ΔF508-CFTR [1]): 356 nM
- EC50 (CFTR ΔF508; [3]): < 30 nM
- % Activity at 1 μM (Ieq*) (CFTR ΔF508; [4]): 270%
- % Activation (ΔF508-CFTR [2]): 292.95%
- EC50 (ΔF508-CFTR [2]): 611 nM

Compound: COCCN(C)c1ccc(-c2cc(C(=O)NS(C)(=O)=O)nc3c2c(C2CCC2)nn3-c2ccccc2)cn1 [Compound 63, 3-cyclobutyl-N-(methanesulfonyl)-4-{6-[(2-methoxyethyl)(methyl)amino]pyridin-3-yl}-1-phenyl-1H-pyrazolo[3,4-b]pyridine-6-carboxamide]
- EC50 (CFTR ΔF508; [3]): 40 nM
- % Activity at 1 μM (Ieq*) (CFTR ΔF508; [4]): 325%

Compound: CN(c1ccc(-c2cc(C(=O)NS(C)(=O)=O)nc3c2c(C2CCC2)nn3-c2ccccc2)cn1)C1CCOCC1 [Compound 74, 3-cyclobutyl-N-(methanesulfonyl)-4-{6-[methyl(oxan-4-yl)amino]pyridin-3-yl}-1-phenyl-1H-pyrazolo[3,4-b]pyridine-6-carboxamide]
- % Activation (ΔF508-CFTR [1]): 424.82%
- EC50 (ΔF508-CFTR [1]): 357 nM
- EC50 (CFTR ΔF508; [3]): < 30 nM
- % Activity at 1 μM (Ieq*) (CFTR ΔF508; [4]): 240%
- % Activation (ΔF508-CFTR [2]): 253.38%
- EC50 (ΔF508-CFTR [2]): 549 nM

Compound: COCCN(C)c1ccc(-c2cc(C(=O)NS(C)(=O)=O)nc3c2c(C2CCC2)nn3-c2ccccc2)cc1 [Compound 75, 3-cyclobutyl-N-(methanesulfonyl)-4-{4-[(2-methoxyethyl)(methyl)amino]phenyl}-1-phenyl-1H-pyrazolo[3,4-b]pyridine-6-carboxamide]
- EC50 (CFTR ΔF508; [3]): 30 nM
- % Activity at 1 μM (Ieq*) (CFTR ΔF508; [4]): 316%

Compound: CC(C)c1nn(C2CCCCC2)c2nc(C(=O)NS(C)(=O)=O)cc(-c3ccc(N4CCC(C#N)CC4)cc3)c12 [Compound 80, 4-[4-(4-cyanopiperidin-1-yl)phenyl]-1-cyclohexyl-N-(methanesulfonyl)-3-(propan-2-yl)-1H-pyrazolo[3,4-b]pyridine-6-carboxamide]
- % Activation (ΔF508-CFTR [1]): 457.5%
- EC50 (ΔF508-CFTR [1]): 389 nM
- EC50 (CFTR ΔF508; [3]): 19.3 nM
- % Activity at 1 μM (Ieq*) (CFTR ΔF508; [4]): 250%
- % Activation (ΔF508-CFTR [2]): 258.38%
- EC50 (ΔF508-CFTR [2]): 436 nM

Compound: CC(C)c1nn(-c2cccc(N3CCOCC3)c2)c2nc(C(=O)NS(C)(=O)=O)cc(-c3ccc(N4CCC(C#N)CC4)nc3)c12 [Compound 85, 4-[6-(4-cyanopiperidin-1-yl)pyridin-3-yl]-N-(methanesulfonyl)-1-[3-(morpholin-4-yl)phenyl]-3-(propan-2-yl)-1H-pyrazolo[3,4-b]pyridine-6-carboxamide]
- % Activation (ΔF508-CFTR [1]): 570.16%
- EC50 (ΔF508-CFTR [1]): 232 nM
- EC50 (CFTR ΔF508; [3]): > 1000 nM
- % Activity at 1 μM (Ieq*) (CFTR ΔF508; [4]): 120%
- % Activation (ΔF508-CFTR [2]): 426.04%
- EC50 (ΔF508-CFTR [2]): 421 nM

Compound: COC1CCN(c2cc(C(=O)NS(C)(=O)=O)nc3c2c(C2CCC2)nn3-c2ccccc2)CC1 [Compound 142, 3-cyclobutyl-N-(methanesulfonyl)-4-(4-methoxypiperidin-1-yl)-1-phenyl-1H-pyrazolo[3,4-b]pyridine-6-carboxamide]
- EC50 (CFTR ΔF508; [5]): < 300 nM
- % Activity at 1 μM (AUC**) (CFTR ΔF508; [6]): 250%

Compound: CS(=O)(=O)NC(=O)c1cc(N2CCC(N3CCOCC3)CC2)c2c(C3CCC3)nn(-c3ccccc3)c2n1 [Compound 328, 3-cyclobutyl-N-(methanesulfonyl)-4-[4-(morpholin-4-yl)piperidin-1-yl]-1-phenyl-1H-pyrazolo[3,4-b]pyridine-6-carboxamide]
- EC50 (CFTR ΔF508): 96 nM

Compound: CN(C)S(=O)(=O)NC(=O)c1cc(OCC2CCOCC2)c2c(C3CCC3)nn(-c3ccccc3)c2n1 [Compound 334, 3-cyclobutyl-N-(dimethylsulfamoyl)-4-[(oxan-4-yl)methoxy]-1-phenyl-1H-pyrazolo[3,4-b]pyridine-6-carboxamide]
- % Activity at 3 μM (AUC**) (CFTR ΔF508; [6]): 345.13%
- % Activation (ΔF508-CFTR [2]): 121.75%
- EC50 (ΔF508-CFTR [2]): 167 nM

Compound: COC1CCN(C2CCN(c3cc(C(=O)NS(=O)(=O)N(C)C)nc4c3c(C3CCC3)nn4-c3ccc(F)cc3)CC2)CC1 [Compound 381, 3-cyclobutyl-N-(dimethylsulfamoyl)-1-(4-fluorophenyl)-4-(4-methoxy[1,4'-bipiperidin]-1'-yl)-1H-pyrazolo[3,4-b]pyridine-6-carboxamide]
- EC50 (CFTR ΔF508; [5]): 4100 nM
- % Activity at 3 μM (AUC**) (CFTR ΔF508; [6]): 441%

Compound: CN(C)S(=O)(=O)NC(=O)c1cc(N2CCC(N3CCOCC3)CC2)c2c(C3CCC3)nn(-c3ccc(F)cc3)c2n1 [Compound 408, 3-cyclobutyl-N-(dimethylsulfamoyl)-1-(4-fluorophenyl)-4-[4-(morpholin-4-yl)piperidin-1-yl]-1H-pyrazolo[3,4-b]pyridine-6-carboxamide]
- EC50 (CFTR ΔF508; [5]): 21 nM
- % Activity at 1 μM (AUC**) (CFTR ΔF508; [6]): 430%

Compound: CS(=O)(=O)NC(=O)c1cc(N2CCC(N3CCOCC3)CC2)c2c(C3CCC3)nn(-c3ccc(F)cc3)c2n1 [Compound 421, 3-cyclobutyl-1-(4-fluorophenyl)-N-(methanesulfonyl)-4-[4-(morpholin-4-yl)piperidin-1-yl]-1H-pyrazolo[3,4-b]pyridine-6-carboxamide]
- EC50 (CFTR ΔF508; [5]): 45.6 nM
- % Activity at 1 μM (AUC**) (CFTR ΔF508; [6]): 193.3333%

Compound: COCCN1CCN(c2ccc(-c3cc(C(=O)NS(=O)(=O)N(C)C)nc4c3c(C3CCC3)nn4C3CCCCC3)cn2)CC1 [Compound 552, 3-cyclobutyl-1-cyclohexyl-N-(dimethylsulfamoyl)-4-{6-[4-(2-methoxyethyl)piperazin-1-yl]pyridin-3-yl}-1H-pyrazolo[3,4-b]pyridine-6-carboxamide]
- % Activation (ΔF508-CFTR [1]): 364.2%
- EC50 (ΔF508-CFTR [1]): 130 nM
- % Activity at 1 μM (AUC**) (CFTR ΔF508; [6]): 235.2857%

Compound: CC(C)Oc1nn(C2CCCCC2)c2nc(C(=O)NS(=O)(=O)N(C)C)cc(-c3ccc(N4CCN(C5CC5)CC4)cc3)c12 [Compound 559, 1-cyclohexyl-4-[4-(4-cyclopropylpiperazin-1-yl)phenyl]-N-(dimethylsulfamoyl)-3-[(propan-2-yl)oxy]-1H-pyrazolo[3,4-b]pyridine-6-carboxamide]
- % Activation (ΔF508-CFTR [1]): 291.03%
- EC50 (ΔF508-CFTR [1]): 154 nM
- % Activity at 1 μM (AUC**) (CFTR ΔF508; [6]): 231.6378%

Compound: COCC1CCN(c2cc(C(=O)NS(=O)(=O)CCCO)nc3c2c(C2CCC2)nn3-c2ccc(F)cc2)CC1 [Compound 672, 3-cyclobutyl-1-(4-fluorophenyl)-N-(3-hydroxypropane-1-sulfonyl)-4-[4-(methoxymethyl)piperidin-1-yl]-1H-pyrazolo[3,4-b]pyridine-6-carboxamide]
- % Activation (ΔF508-CFTR [1]): 422.4%
- EC50 (ΔF508-CFTR [1]): 127 nM
- % Activation (ΔF508-CFTR [2]): 362.9%
- EC50 (ΔF508-CFTR [2]): 331 nM
